Reference: PubChem BioAssay AID328 (DTP/NCI, 2004)
“And” between values parts separate entries of the source, which are not always exact repeats. Equal values may be shown once. Inconclusive results and toxic doses are left out.

Test system: BDF1 mice, P388 leukemia ip, median survival T/C
Assay: NCI In Vivo Anticancer Drug Screen. Data for tumor model P388 Leukemia (intraperitoneal) in B6D2F1 (BDF1) mice
Settings: endpoint: median survival time, higher = longer survival
Outline: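 Mice carrying the transplantable tumour receive compound or vehicle. Survival is followed in each arm, and the treated measure is divided by the vehicle measure.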

[1] = dose: 50.0 mg/kg/injection, schedule: Q01DX009 (ip), vehicle: saline with Tween-80
[2] = dose: 100.0 mg/kg/injection, schedule: Q01DX009 (ip), vehicle: saline with Tween-80
[3] = dose: 200.0 mg/kg/injection, schedule: Q01DX009 (ip), vehicle: saline with Tween-80
[4] = dose: 400.0 mg/kg/injection, schedule: Q01DX009 (ip), vehicle: saline with Tween-80
[5] = dose: 25.0 mg/kg/injection, schedule: Q04DX003 (ip), vehicle: saline
[6] = dose: 50.0 mg/kg/injection, schedule: Q04DX003 (ip), vehicle: saline
[7] = dose: 100.0 mg/kg/injection, schedule: Q04DX003 (ip), vehicle: saline
[8] = dose: 50.0 mg/kg/injection, schedule: Q01DX009 (ip), vehicle: saline
[9] = dose: 100.0 mg/kg/injection, schedule: Q01DX009 (ip), vehicle: saline

O=C(/C=C/c1ccccc1)c1ccccc1
T/C [1]: 106 % of control | T/C [2]: 104 % of control | T/C [3]: 108 % of control | T/C [4]: 109 % of control

[Cl][Co][Cl].[NH-]CCN1CC1
T/C [5]: 103 % of control | T/C [6]: 107 % of control | T/C [7]: 103 % of control

CCN(CC)CCOc1cc(C)ccc1C
T/C (dose: 25.0 mg/kg/injection, schedule: Q01DX009 (ip), vehicle: saline): 103 % of control | T/C [5]: 109 % of control | T/C [8]: 92 % of control | T/C [6]: 100 % of control | T/C [9]: 89 % of control | T/C [7]: 90 % of control

CN(CO)c1nc(N(C)CO)nc(N(C)CO)n1
T/C (dose: 12.5 mg/kg/injection, schedule: Q01DX005 (ip), vehicle: saline): 104 % of control | T/C (dose: 25.0 mg/kg/injection, schedule: Q01DX005 (ip), vehicle: saline): 113 % of control | T/C (dose: 100.0 mg/kg/injection, schedule: Q01DX005 (ip), vehicle: saline): 155 % of control

C=CCCCCCC/C=C\CCCCC
T/C (dose: 50.0 mg/kg/injection, schedule: Q01DX010 (ip), vehicle: alcohol): 104 % of control

Ic1ccc(N=Cc2cccs2)cc1
T/C [1]: 117 % of control | T/C [2]: 99 % of control | T/C [3]: 97 % of control | T/C [4]: 108 % of control

CCN(CC)CCC(=O)c1ccccc1
T/C [1]: 95 % of control

CS(C)=O.CS(C)=O.[Cl][Rh]([Cl])([Cl])[Cl]
T/C (dose: 12.5 mg/kg/injection, schedule: Q01DX009 (ip), vehicle: saline): 120 % of control | T/C (dose: 22.0 mg/kg/injection, schedule: Q01DX009 (ip), vehicle: saline): 116 % of control and 120 % of control | T/C (dose: 33.0 mg/kg/injection, schedule: Q01DX009 (ip), vehicle: saline): 95 % of control and 116 % of control | T/C [8]: 166 % of control

CCN1CCC(O)(c2ccc(Br)cc2)C1 (configuration not stated)
T/C [8]: 106 % of control | T/C [9]: 97 % of control

Cc1cc(C)c(-c2cc(O)c(C)cc2O)c(C)c1
T/C (dose: 0.39 mg/kg/injection, schedule: Q04DX003 (ip), vehicle: other): 103 % of control | T/C (dose: 0.78 mg/kg/injection, schedule: Q04DX003 (ip), vehicle: other): 108 % of control | T/C (dose: 1.56 mg/kg/injection, schedule: Q04DX003 (ip), vehicle: other): 104 % of control | T/C (dose: 3.12 mg/kg/injection, schedule: Q04DX003 (ip), vehicle: other): 90 % of control and 108 % of control | T/C (dose: 6.25 mg/kg/injection, schedule: Q04DX003 (ip), vehicle: other): 88 % of control and 100 % of control | T/C (dose: 12.5 mg/kg/injection, schedule: Q01DX009 (ip), vehicle: other): 97 % of control | T/C (dose: 12.5 mg/kg/injection, schedule: Q04DX003 (ip), vehicle: other): 108 % of control and 109 % of control | T/C (dose: 25.0 mg/kg/injection, schedule: Q01DX009 (ip), vehicle: other): 118 % of control | T/C (dose: 25.0 mg/kg/injection, schedule: Q04DX003 (ip), vehicle: other): 92 % of control | T/C (dose: 25.0 mg/kg/injection, schedule: Q04DX003 (ip), vehicle: saline with Tween-80): 100 % of control | T/C (dose: 65.0 mg/kg/injection, schedule: Q04DX003 (ip), vehicle: Klucel (hydroxypropylcellulose) (HPC)): 105 % of control | T/C (dose: 100.0 mg/kg/injection, schedule: Q01DX009 (ip), vehicle: other): 102 % of control | T/C (dose: 100.0 mg/kg/injection, schedule: Q04DX003 (ip), vehicle: Klucel (hydroxypropylcellulose) (HPC)): 114 % of control | T/C (dose: 150.0 mg/kg/injection, schedule: Q04DX003 (ip), vehicle: Klucel (hydroxypropylcellulose) (HPC)): 109 % of control | T/C (dose: 200.0 mg/kg/injection, schedule: Q04DX003 (ip), vehicle: saline with Tween-80): 93 % of control

C=CC12COC(=O)C(=C)C1C(O)C1C(=C)C(=O)OC1C2 (configuration not stated)
T/C (dose: 3.75 mg/kg/injection, schedule: Q01DX009 (ip), vehicle: saline + alcohol): 113 % of control | T/C (dose: 15.0 mg/kg/injection, schedule: Q01DX009 (ip), vehicle: saline + alcohol): 90 % of control

CC(=O)OC1OC(CSC(=N)N)C(OC(C)=O)C(OC(C)=O)C1OC(C)=O (configuration not stated)
T/C [1]: 116 % of control | T/C [2]: 119 % of control | T/C [3]: 110 % of control

COc1ccc2[nH]c3cc(Cl)ccc3c(=O)c2c1
T/C [2]: 100 % of control | T/C [3]: 100 % of control | T/C [4]: 90 % of control

Cc1ccc(SC2CC3CC2C2COCC32)cc1 (configuration not stated)
T/C (dose: 25.0 mg/kg/injection, schedule: Q01DX009 (ip), vehicle: Klucel (hydroxypropylcellulose) (HPC)): 86 % of control | T/C (dose: 50.0 mg/kg/injection, schedule: Q01DX009 (ip), vehicle: Klucel (hydroxypropylcellulose) (HPC)): 95 % of control | T/C (dose: 100.0 mg/kg/injection, schedule: Q01DX009 (ip), vehicle: Klucel (hydroxypropylcellulose) (HPC)): 104 % of control

CC(C)(C)CC(C)(C)c1ccc(OCCOc2ccccc2NC(=O)CC(=O)c2cccc([N+](=O)[O-])c2)cc1
T/C (dose: 100.0 mg/kg/injection, schedule: Q01DX001 (ip), vehicle: Klucel (hydroxypropylcellulose) (HPC)): 95 % of control | T/C (dose: 200.0 mg/kg/injection, schedule: Q01DX001 (ip), vehicle: Klucel (hydroxypropylcellulose) (HPC)): 95 % of control | T/C (dose: 400.0 mg/kg/injection, schedule: Q01DX001 (ip), vehicle: Klucel (hydroxypropylcellulose) (HPC)): 95 % of control
